According to US20080260896A1 (priority 2007, published 2008):
Where two headings read alike, the source gives them in different places. Marks after values point to notes of the source that are not given here.

Key:
[1] = Crude glycerin as pellet binder: pellet mill current usage and pellet durability index (PDI); assay type: physicochemical
Excerpt: In this embodiment, the crude glycerin [FROM SHEET WHEN GET FROM NEIL] […] Two corn/soy diets, one with low fat and one with high fat, and two high fiber diets, one with low fat and one with high fat, were formulated to provide the four treatment groups. […] Table 1 references diet formulations tested. The “HFP” referred to in Table 1 refers to a High Fat Product available from Archer Daniels Midland Company, Decatur, Ill. […] [table]

[2] = lambs
Excerpt: Lambs received a common receiving ration for one week prior to allotment. Lambs were blocked by weight (4 blocks) and fed in individual crates for […]. […] Initial and final weights were collected on consecutive days and an interim weight was taken on day 14. Periods were: 1) days 1 to 14, 2) days 15 to 29, and 3) cumulative (days 1 to 29).

[3] = Gross energy of crude glycerin sample; assay type: physicochemical; conditions: test crude glycerin sample with 14.8% moisture
[4] = Glycerin as feed ingredient for lactating dairy cattle; assay type: in vivo, lactating Holstein cows; conditions: for Estimated Net Energy for Lactation (of the entire diet): calculated from energy output in milk and body weight increase
Method: In another embodiment, an evaluation was conducted to assess practical energy value of using glycerin as a feed ingredient for lactating dairy cattle. […] Diets were balanced to meet energy requirements based on the control diet, be isonitrogenous, and balanced to meet or exceed requirements for all other nutrients. The basal ration contained corn silage, alfalfa haylage, hay, high-moisture corn, vitamins, and minerals, and was formulated to contain about 17% CP, 6.5% RUP, and 10.5 RDP (DM basis).

[5] = Methanol concentration of stored crude glycerin; assay type: physicochemical; conditions: stored in sealed totes approximately 5 months, analyzed in duplicate; certificate of analysis 800 ppm
Excerpt: A subset of ten cattle (5 from each treatment) were used for baseline and withdrawal sampling of rumen fluid and blood plasma for residual methanol quantification. […] Withdrawal samples were collected from the same subset of animals.

[6] = Crude glycerin as an energy source in swine nursery diets; assay type: in vivo; conditions: nursery pigs
Method: In yet another embodiment, crude glycerin was evaluated as an energy source in swine nursery diets. A total of 165 pigs (Monsanto Choice Genetics, EB x GP37; initial weight: 7.14 kg) were used to determine the effect of […] on performance of nursery pigs. Pigs were blocked by initial weight to one of five dietary treatments with seven pens per treatment and four or five pigs per pen. […] The basal diets were close to a typical corn-SBM diet with no animal fat added. […] Dietary protein, lysine (amino acid ratios), major minerals, and vitamins were equal across treatments within each phase. […] Dietary lysine levels were high enough to […] to observe energy effect. Feeding programs of Momentum grind-mix option (15-25, 25-35 and 35-50 lbs. BW) was the base program. The trial had four phases with 7, 7, 7, and 9 days, respectively. Before the pigs started the trial, the pigs were fed a common diet until the pigs weighed about 15.5 pounds. Medication choice for diets in this embodiment was Carbadox. The assumed ME value for crude glycerin was based on preliminary research data from Europe. […] Feed efficiency data was regressed against daily ME intake to estimate ME content for crude glycerin. […] The crude glycerin's energy value should be similar to or lower than corn.

OCC(O)CO [crude glycerin, glycerin]
PDI ([1]; Corn/Soy High Fat diet, crude glycerin 2.5%): 54 | PDI ([1]; Corn/Soy High Fat diet, crude glycerin 5.0%): 66 | PDI ([1]; Corn/Soy Low Fat diet, crude glycerin 2.5%): 89 | PDI ([1]; Corn/Soy Low Fat diet, crude glycerin 5.0%): 93 | PDI ([1]; High Fiber High Fat diet, crude glycerin 2.5%): 89 | PDI ([1]; High Fiber High Fat diet, crude glycerin 5.0%): 91 | PDI ([1]; High Fiber Low Fat diet, crude glycerin 2.5%): 98 | PDI ([1]; High Fiber Low Fat diet, crude glycerin 5.0%): 98 | Final weight ([2]; 0 to 20% crude glycerin): not significantly different | morbidity and mortality, treatment effects ([2]; 0 to 20% crude glycerin): treatment effects were not different | cumulative DMI ([2]; 5% crude glycerin): 1.26 kg/day | cumulative DMI ([2]; 10% crude glycerin): 1.21 kg/day | cumulative DMI ([2]; 15% crude glycerin): 1.27 kg/day | cumulative DMI ([2]; 20% crude glycerin): 1.20 kg/day | Cumulative ADG ([2]; days 1 to 29, 5% crude glycerin): 0.40 kg/day | Cumulative ADG ([2]; days 1 to 29, 10% crude glycerin): 0.36 kg/day | Cumulative ADG ([2]; days 1 to 29, 15% crude glycerin): 0.39 kg/day | Cumulative ADG ([2]; days 1 to 29, 20% crude glycerin): 0.36 kg/day | palatability ([2]; levels of up to 20% dry matter (DM) inclusion): not a concern | Gross energy [3]: 3845 kcal/kg | Body Weight change ([4]; 5% glycerin fed (DM basis)): 89.6^ab lbs. | Body condition score change ([4]; 5% glycerin fed (DM basis)): 0.1 | Feed intake ([4]; 5% glycerin fed (DM basis)): 53.9 lb/day | Milk production ([4]; 5% glycerin fed (DM basis)): 81.2 lb/day | Milk urea Nitrogen ([4]; 5% glycerin fed (DM basis)): 10.9^b mg/dl | Somatic Cell Count ([4]; 5% glycerin fed (DM basis)): 490 1000 cells/ml | Estimated Net Energy for Lactation (of the entire diet) ([4]; 5% glycerin fed (DM basis)): 1.55 mcal/kg | Body Weight change ([4]; 10% glycerin fed (DM basis)): 109.3^b lbs. | Body condition score change ([4]; 10% glycerin fed (DM basis)): 0.1 | Feed intake ([4]; 10% glycerin fed (DM basis)): 54.1 lb/day | Milk production ([4]; 10% glycerin fed (DM basis)): 82.1 lb/day | Milk urea Nitrogen ([4]; 10% glycerin fed (DM basis)): 10.7^b mg/dl | Somatic Cell Count ([4]; 10% glycerin fed (DM basis)): 137 1000 cells/ml | Estimated Net Energy for Lactation (of the entire diet) ([4]; 10% glycerin fed (DM basis)): 1.57 mcal/kg | Body Weight change ([4]; 15% glycerin fed (DM basis)): 113.5^b lbs. | Body condition score change ([4]; 15% glycerin fed (DM basis)): 0.1 | Feed intake ([4]; 15% glycerin fed (DM basis)): 53.0 lb/day | Milk production ([4]; 15% glycerin fed (DM basis)): 80.0 lb/day | Milk urea Nitrogen ([4]; 15% glycerin fed (DM basis)): 10.2^b mg/dl | Somatic Cell Count ([4]; 15% glycerin fed (DM basis)): 144 1000 cells/ml | Estimated Net Energy for Lactation (of the entire diet) ([4]; 15% glycerin fed (DM basis)): 1.58 mcal/kg | methanol concentration of crude glycerin samples [5]: 756 ppm | daily gain ([6]; phase 4, increasing dietary crude glycerin): decreased in phase 4 in a linear and quadratic manner | Feed intake ([6]; phases 2, 3, 4 and cumulative phases 1-2, 1-3, 1-4, increasing dietary crude glycerin): linearly increased | daily gain ([6]; up to 12% crude glycerin): did not affect daily gain
